Experiments:
[1] = target: TEC (Homo sapiens (Human), UniProt P42680); test: TEC LanthaScreen assay; format: binding; settings: 2h incubation
Protocol: TEC enzyme activity is measured using the LanthaScreen assay from ThermoFisher as outlined below.
TEC enzyme (LifeTech # PV3269) and Eu-anti-HIS antibody (Invitrogen # PV5596) are mixed and diluted in kinase buffer (50 mM Hepes pH 7.5+10 mM MgCl2+1 mM EGTA+0.01% Brij-35) to 3 and 6 nM, respectively. Final concentration in the assay for enzyme and antibody are 1 and 2 nM, respectively.
Tracer (Kinase Tracer 178, Invitrogen # PV5593) is diluted in Kinase buffer to 3 nM. Final concentration in the assay is 1 nM.
Serial dilutions log 10 from 1 mM to 3.16 nM of test compounds are made in 100% DMSO. The dilutions in DMSO are then diluted 33-fold in Kinase buffer (50 mM Hepes pH 7.5+10 mM MgCl2+1 mM EGTA+0.01% Brij-35).
The assay is performed as follows: 5 μL/well of TEC enzyme and EU-anti-His antibody dilution is mixed with 5 μL/well tracer dilution and 5 μL/well of compound dilution in Kinase buffer. Final compound concentration in the assay ranged from 10 μM to 0.316 nM, with 1% DMSO final concentration in assay. Following a 2h incubation at room the TR-FRET signal at 615 nm and 665 nm is read. The ratio 665/615 was used to calculate values expressed as percentage of the difference in readout (S/N) of the controls with and without Tracer. IC50 values were determined by curve fitting of the experimental results in Dotmatics.

[2] = target: BTK wild type (BTK-WT) (Homo sapiens (Human), UniProt Q06187); test: BTK-WT LanthaScreen, inhibition constants from IC50 over time; format: binding
BTK wild type (BTK-WT), sequence (Q06187 whole entry): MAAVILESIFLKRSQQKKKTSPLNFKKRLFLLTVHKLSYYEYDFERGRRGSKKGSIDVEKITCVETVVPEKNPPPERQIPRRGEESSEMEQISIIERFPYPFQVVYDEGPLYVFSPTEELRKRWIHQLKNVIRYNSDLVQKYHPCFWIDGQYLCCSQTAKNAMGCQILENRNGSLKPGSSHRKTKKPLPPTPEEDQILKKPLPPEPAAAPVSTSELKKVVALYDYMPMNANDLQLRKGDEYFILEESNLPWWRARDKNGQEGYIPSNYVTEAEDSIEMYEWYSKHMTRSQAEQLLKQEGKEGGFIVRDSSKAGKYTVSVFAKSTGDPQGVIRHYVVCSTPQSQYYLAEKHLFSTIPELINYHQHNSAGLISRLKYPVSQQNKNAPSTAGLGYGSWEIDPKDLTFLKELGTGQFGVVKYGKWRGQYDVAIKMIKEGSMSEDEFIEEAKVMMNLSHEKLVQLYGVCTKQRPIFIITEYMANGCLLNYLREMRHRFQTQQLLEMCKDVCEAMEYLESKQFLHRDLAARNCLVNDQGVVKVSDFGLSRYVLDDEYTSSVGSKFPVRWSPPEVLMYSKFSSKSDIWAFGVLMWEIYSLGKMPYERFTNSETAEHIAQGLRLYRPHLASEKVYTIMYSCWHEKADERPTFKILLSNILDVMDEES
Protocol: Inhibitory activity on BTK wild type (BTK-WT) and BTK Cys481Ser mutant (BTK-C481S) was measured using the LanthaScreen assay technology from ThermoFisher according to manufacturer's protocol. BTK-WT or BTK-C481 S (Genscript) were mixed and diluted with Eu-anti-GST antibody (Invitrogen) in Kinase buffer (50 mM Hepes pH 7.5+10 mM MgCl2+1 mM EGTA+0.01% Brij-35) to 15 and 6 nM, respectively. Final concentration in the assay for enzyme and antibody are 5 and 2 nM, respectively. Tracer (Kinase Tracer 236, Invitrogen) is diluted in Kinase buffer to 90 nM. Final concentration in the assay is 30 nM. Serial dilutions log 10 from 1 mM to 3.16 nM of test compounds are made in 100% DMSO. The dilutions in DMSO are then diluted 33-fold in Kinase buffer (50 mM Hepes pH 7.5+10 mM MgCl2+1 mM EGTA+0.01% Brij-35). The assay is performed as follows: 5 μL/well of BTK-WT or BTK-C481S enzyme and EU-anti-GST antibody dilution is mixed with 5 μL/well tracer dilution and 5 μL/well of compound dilution in Kinase buffer. Final compound concentration in the assay ranged from 10 μM to 0.316 nM, with 1% DMSO final concentration in assay. Mixture was incubated at room temperature in the dark and at different times of incubation (5 min, 10 min, 20 min, 30 min, 40 min, 60 min, 90 min, 120 min, 180 min and 300 min) the TR-FRET signal was read at 615 nm and 665 nm. The ratio 665/615 was used to calculate values expressed as percentage of the difference in readout (S/N) of the controls with and without Tracer. IC50 values for each timepoint were determined by curve fitting of the experimental results in Dotmatics. […] The kinetics in covalent binding are determined by affinity of the compound to BTK and by the reactivity of the electrophile. Using the data for M27 from the LanthaScreen assay on BTK-WT, the inhibition constants can be calculated for the parent and the metabolite. […] The Ki and kinact parameters were derived from IC50 values over time, according to the method of Krippendorff et al (J Biomol Screen. 2009, 14(8):913-23) with measured Km=102 nM for the tracer used in the assay.

[3] = target: BRK (PTK6) (Homo sapiens (Human), UniProt Q13882); test: DiscoveRx Kd dose response, BRK (PTK6); format: binding
BRK (PTK6), sequence (Q13882 whole entry): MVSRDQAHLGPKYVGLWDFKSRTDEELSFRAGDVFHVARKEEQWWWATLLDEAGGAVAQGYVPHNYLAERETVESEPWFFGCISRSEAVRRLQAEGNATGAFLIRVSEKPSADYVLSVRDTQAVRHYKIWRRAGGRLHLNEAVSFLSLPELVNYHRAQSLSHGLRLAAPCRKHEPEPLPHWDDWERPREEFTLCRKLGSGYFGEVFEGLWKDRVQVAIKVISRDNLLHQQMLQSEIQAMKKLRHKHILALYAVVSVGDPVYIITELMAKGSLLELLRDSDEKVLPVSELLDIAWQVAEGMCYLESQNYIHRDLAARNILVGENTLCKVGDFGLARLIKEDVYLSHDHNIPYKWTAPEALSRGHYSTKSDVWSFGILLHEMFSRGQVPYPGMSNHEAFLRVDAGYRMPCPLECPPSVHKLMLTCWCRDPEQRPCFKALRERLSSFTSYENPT
Protocol: (§1) Kinase profiling was performed with M27 was done at DiscoveRx at a single dose of 1 μM on all available kinases (KINOMEscan). The overall kinase selectivity score is in Table 6. […] Kinases inhibited >65% at 1 μM for M27 were followed up with a dose response at DiscoveRx. The M27 had IC50 values <1 μM for almost the same set of kinases with exception of TXK, but with additional inhibition of BRK (PTK6).

[4] = target: ERBB4 (Homo sapiens (Human), UniProt Q15303); test: DiscoveRx Kd dose response, ERBB4; format: binding
ERBB4, sequence (Q15303 26-1308): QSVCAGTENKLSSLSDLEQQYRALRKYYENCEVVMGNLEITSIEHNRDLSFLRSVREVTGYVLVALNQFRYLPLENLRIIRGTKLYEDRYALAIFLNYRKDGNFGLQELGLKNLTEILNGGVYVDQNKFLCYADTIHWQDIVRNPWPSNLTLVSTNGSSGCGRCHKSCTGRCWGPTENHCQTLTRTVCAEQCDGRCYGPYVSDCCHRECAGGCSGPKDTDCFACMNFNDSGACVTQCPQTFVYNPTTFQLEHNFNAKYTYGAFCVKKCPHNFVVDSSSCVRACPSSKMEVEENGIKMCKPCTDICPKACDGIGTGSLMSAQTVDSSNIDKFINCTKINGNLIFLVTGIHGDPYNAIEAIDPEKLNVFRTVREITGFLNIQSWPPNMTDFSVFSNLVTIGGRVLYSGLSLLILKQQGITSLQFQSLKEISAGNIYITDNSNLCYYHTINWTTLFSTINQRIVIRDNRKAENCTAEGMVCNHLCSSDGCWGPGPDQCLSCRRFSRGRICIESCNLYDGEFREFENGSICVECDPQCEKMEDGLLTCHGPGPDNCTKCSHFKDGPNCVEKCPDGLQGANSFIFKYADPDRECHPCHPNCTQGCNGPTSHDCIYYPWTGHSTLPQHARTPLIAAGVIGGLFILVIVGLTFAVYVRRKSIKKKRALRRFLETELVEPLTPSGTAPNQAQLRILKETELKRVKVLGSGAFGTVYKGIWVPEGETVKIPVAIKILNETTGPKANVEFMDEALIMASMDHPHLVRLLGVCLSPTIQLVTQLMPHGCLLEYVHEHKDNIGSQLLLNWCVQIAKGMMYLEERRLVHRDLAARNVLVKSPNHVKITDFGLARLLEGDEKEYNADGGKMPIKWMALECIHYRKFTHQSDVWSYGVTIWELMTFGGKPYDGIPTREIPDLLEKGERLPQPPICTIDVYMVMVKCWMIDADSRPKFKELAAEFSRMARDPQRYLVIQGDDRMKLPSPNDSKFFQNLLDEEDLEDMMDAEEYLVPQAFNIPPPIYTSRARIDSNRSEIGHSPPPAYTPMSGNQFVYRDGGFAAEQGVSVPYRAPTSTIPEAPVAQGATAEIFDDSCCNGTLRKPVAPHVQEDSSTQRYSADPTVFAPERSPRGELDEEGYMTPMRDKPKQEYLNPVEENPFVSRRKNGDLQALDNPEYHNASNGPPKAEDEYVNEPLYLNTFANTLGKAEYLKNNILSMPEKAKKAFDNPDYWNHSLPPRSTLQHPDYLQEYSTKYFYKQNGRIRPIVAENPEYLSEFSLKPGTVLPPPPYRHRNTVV
Protocol: as §1

[5] = target: TXK (Homo sapiens (Human), UniProt P42681); test: DiscoveRx Kd dose response, TXK; format: binding
TXK, sequence (P42681 whole entry): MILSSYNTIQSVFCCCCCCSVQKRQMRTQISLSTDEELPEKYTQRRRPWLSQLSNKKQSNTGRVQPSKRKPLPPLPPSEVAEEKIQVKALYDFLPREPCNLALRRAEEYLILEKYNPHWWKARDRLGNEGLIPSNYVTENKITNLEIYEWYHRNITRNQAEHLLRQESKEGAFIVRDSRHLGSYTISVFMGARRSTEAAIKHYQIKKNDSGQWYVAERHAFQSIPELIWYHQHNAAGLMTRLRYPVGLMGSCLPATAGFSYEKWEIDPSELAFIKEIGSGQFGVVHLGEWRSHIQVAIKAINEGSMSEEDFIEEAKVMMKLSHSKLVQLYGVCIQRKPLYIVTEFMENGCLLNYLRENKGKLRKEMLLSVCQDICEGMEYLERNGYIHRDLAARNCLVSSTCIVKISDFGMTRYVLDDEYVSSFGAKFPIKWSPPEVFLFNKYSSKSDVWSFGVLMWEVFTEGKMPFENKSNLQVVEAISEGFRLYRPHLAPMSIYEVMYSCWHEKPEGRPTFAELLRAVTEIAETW
Protocol: as §1

[6] = target: CYP2C8 (Homo sapiens (Human), UniProt P10632); test: CYP inhibition, CYP2C8; format: in vitro ADME
CYP2C8, sequence (P10632 whole entry): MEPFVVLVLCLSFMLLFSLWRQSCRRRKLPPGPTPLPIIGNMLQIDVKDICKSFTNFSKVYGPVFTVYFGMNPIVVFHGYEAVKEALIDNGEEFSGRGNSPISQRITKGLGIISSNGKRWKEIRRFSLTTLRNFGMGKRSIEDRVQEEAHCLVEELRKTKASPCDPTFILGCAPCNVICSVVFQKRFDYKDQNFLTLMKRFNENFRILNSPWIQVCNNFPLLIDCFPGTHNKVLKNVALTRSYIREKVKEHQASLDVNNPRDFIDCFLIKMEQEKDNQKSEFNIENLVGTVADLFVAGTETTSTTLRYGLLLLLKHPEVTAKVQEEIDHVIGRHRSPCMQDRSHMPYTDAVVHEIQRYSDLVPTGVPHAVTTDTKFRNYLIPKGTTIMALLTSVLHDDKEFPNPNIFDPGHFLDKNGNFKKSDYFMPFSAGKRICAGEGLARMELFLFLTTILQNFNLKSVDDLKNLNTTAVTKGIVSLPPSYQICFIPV

[7] = target: CYP1A2 (Homo sapiens (Human), UniProt P05177)
CYP1A2, sequence (P05177 whole entry): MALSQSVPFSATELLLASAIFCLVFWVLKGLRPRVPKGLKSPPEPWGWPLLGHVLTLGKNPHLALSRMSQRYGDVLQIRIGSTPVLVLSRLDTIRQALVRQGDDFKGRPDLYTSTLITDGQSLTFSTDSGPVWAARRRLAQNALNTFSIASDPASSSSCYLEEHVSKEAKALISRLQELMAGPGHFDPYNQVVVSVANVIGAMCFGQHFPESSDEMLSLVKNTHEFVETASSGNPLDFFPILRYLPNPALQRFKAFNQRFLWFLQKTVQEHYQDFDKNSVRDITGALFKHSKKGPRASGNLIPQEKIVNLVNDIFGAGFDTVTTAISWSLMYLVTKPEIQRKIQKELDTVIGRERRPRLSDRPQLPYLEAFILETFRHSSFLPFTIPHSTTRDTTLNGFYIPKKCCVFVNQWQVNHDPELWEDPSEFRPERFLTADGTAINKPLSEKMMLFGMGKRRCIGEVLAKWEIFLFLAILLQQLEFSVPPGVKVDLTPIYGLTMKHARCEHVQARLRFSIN

TEC, sequence (P42680 whole entry): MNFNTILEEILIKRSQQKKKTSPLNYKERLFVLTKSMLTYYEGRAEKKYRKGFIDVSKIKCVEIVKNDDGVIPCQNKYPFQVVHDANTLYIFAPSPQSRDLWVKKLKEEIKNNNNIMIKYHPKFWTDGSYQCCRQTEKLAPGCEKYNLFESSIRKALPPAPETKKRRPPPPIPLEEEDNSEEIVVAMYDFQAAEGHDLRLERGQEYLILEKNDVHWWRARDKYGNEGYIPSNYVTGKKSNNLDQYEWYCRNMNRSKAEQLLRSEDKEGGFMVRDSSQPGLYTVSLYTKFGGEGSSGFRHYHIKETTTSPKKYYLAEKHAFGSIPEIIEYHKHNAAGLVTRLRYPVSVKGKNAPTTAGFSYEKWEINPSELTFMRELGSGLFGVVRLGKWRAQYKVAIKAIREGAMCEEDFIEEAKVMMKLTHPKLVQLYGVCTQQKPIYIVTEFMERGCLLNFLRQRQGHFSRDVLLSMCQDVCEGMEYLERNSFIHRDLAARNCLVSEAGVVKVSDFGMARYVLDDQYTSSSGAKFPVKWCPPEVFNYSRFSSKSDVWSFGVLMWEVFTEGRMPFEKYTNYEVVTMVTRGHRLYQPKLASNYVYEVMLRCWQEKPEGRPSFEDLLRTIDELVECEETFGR

CC#CC(=O)NCCCC(=O)c1nc(-c2ccc(C(=O)Nc3ccccn3)cc2)c2c(N)nccn12 [Formula (I), 4-(8-amino-3-(4-(but-2-ynamido)butanoyl)imidazo[1,5-a]pyrazin-1-yl)-N-(pyridin-2-yl)benzamide]
IC50 [1]: 0.345 ± 0.034 µM | kinact/KI [2]: 16500 M⁻¹ s⁻¹ | kinact ([2]; derived from IC50 values over time (Krippendorff method)): 0.0031 ± 0.0003 s⁻¹ | Ki ([2]; derived from IC50 values over time (Krippendorff method), tracer Km=102 nM): 0.188 ± 0.009 µM | Kd [3]: 0.15 µM | Kd [4]: 0.97 µM | Kd [5]: 1.1 µM | CYP2C8 inhibition [6]: weak inhibitor | CYP1A2 inhibition [7]: does not inhibit
